{
  "source": "patent US20240293430A1",
  "about": "“WITHAFERIN A AND IMMUNE CHECKPOINT BLOCKER COMBINATION THERAPIES” (University of South Florida, priority 2023, published 2024)",
  "format_in_all_cases": "cell-based, mouse (LLC), human (H1650",
  "key": {"[1]": {"system": "NSCLC cell lines (LLC, H1650, A549)", "test": "Annexin V apoptosis assay (flow cytometry)", "conditions": "48 h, compared to untreated cells", "description": "FIGS. 1A-lE depict that WFA induces ER stress-mediated apoptosis in NSCLC cell lines. (FIG. 1A) NSCLC cells were plated on 96-well plates and treated with different concentrations of WFA ([…]) in triplicates. Forty-eight hours post-treatment, cell viability was determined using Cell Titer-Glo assay. Luminescence values were normalized to control untreated cells and IC50 values are represented as the mean of two independent experiments ±SEM. (FIG. 1B) NSCLC cells were treated WFA for forty-eight hours, then collected to measure apoptotic cell death using Annexin V assay in LLC cells, H1650 cells, and A549 cells. Percentages of early (annexin*DAPI-) and late (annexin*DAPI+) apoptotic cells are represented as means of two separate experiments ±SEM and statistical significance was calculated using one-way ANOVA and a Fisher LSD post hoc test was used to compare the mean of each group to that of the control group. (FIGS. 1C-1D) WFA treated cells were collected in Trizol and total RNA was isolated to measure the levels of Bax (FIG. 1C) and Bcl2 (FIG. 1D) mRNA using qRT-PCR. PCR experiments were repeated at least twice, and one representative experiment is shown as mean±SEM of the technical replicates. […] The quantification of western blot band density was performed using Image J software v.1.54d and normalized to housekeeping control protein in LLC cells (0-actin). […]"}, "[2]": {"system": "PD-L1 expression in LLC, H1650, and A549 cell lines", "test": "PD-L1 expression in NSCLC cell lines (flow cytometry, qRT-PCR, western blot)", "description": "FIGS. 3A-3F depict that WFA upregulates PD-L1 surface expression in NSCLC cell lines. Cells were treated with WFA for 48 h. (FIGS. 3A, 3C, 3E) PD-L1 surface expression determined using flow cytometry LLC (FIG. 3A), H1650 (FIG. 3C), and A549 (FIG. 3E). (FIGS. 3B, 3D, 3F) PD-L1 expression was measured using qRT-PCR LLC (FIG. 3B), H1650 (FIG. 3D), A549 (FIG. 3F). PCR experiments were repeated twice and the mean±SEM of the technical replicates are represented. For the rest, the means of two independent experiments ±SEM are shown, and statistical significance was calculated using one-way ANOVA and a Fisher LSD post hoc test where * is p<0.05, ** is p<0.01, and **** is p <0.0001.\nFIGS. 8A-8G depict that WFA induced ICD and PD-L1 upregulation in colorectal cancer cell lines. WFA increased the levels of ecto-CRT in the murine colorectal cancer cell line (FIG. 8A) MC-38 and human cell line (FIG. 8B) HCT-116. WFA increased the expression of PD-L1 in both (FIG. 8C) MC-38 and (FIG. 8D) HCT-116 cells. […] H1650 cells (at a higher density) were treated with a higher concentration of WFA (2 and 4 μM) to facilitate cell collection and protein isolation. The band density was quantified using Image J software and normalized to the housekeeping protein. The fold change from untreated control was averaged from two independent experiments ±SEM and one-way ANOVA was used to calculate the statistical significance. A Fisher LSD post hoc test was performed to compare the treatments to the control in (FIG. 8E) LLC, (FIG. 8F) H1650, (FIG. 8G) A549 cells. * p<0.05, ** p<0.01, *** p<0.001, **** p<0.0001. […]\nTotal cellular RNA was isolated from collected cell pellets using TRIzol reagent (Invitrogen, Waltham, MA, USA) and then quantified using the 2000 Nanodrop spectrophotometer (Thermo Fisher Scientific, Waltham, MA, USA). cDNA synthesis was performed using the Verso cDNA synthesis kit (Thermo Fisher Scientific, Waltham, MA, USA). qPCR was then performed using Forget-Me-Not EvaGreen qPCR Master Mix (Biotium, Fremont, CA, USA) in a Bio-Rad CFX384 thermocycler according to the manufacturer's instructions. […]"}, "[3]": {"system": "ROS levels in NSCLC cell lines", "test": "ROS levels with ROS indicator CM-H2DCFDA", "conditions": "24 h; WFA 0.6 μM (LLC, H1650), 4 μM (A549); NAC 5 mM"}},
  "data": [
    {"smiles": "CC1=C(CO)C(=O)O[C@@H]([C@@H](C)[C@H]2CC[C@H]3[C@@H]4C[C@H]5O[C@]56[C@@H](O)C=CC(=O)[C@]6(C)[C@H]4CC[C@]23C)C1", "note": "[WFA, Withaferin A]", "values": [
      {"measurement": "early and late apoptotic cell populations", "setting": "[1]", "value": "significant increase"},
      {"measurement": "PD-L1 surface expression", "setting": "[2]; flow cytometry, 48 h, LLC, H1650, A549", "value": "consistently increased"},
      {"measurement": "PD-L1 expression (mRNA)", "setting": "[2]; qRT-PCR", "value": "induced"},
      {"measurement": "PD-L1 expression (protein)", "setting": "[2]; western blotting", "value": "induced"},
      {"measurement": "ROS levels", "setting": "[3]", "value": "increased"}
    ]}
  ]
}
